In PubChem BioAssay (NCI):
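Growth conditions: 96-well plates. Treatment: test compound, 48 hours, 5 concentrations. Analysis: linear interpolation between bracketing concentrations; unreached endpoints set to highest concentration. Here, GI50 denotes the concentration required for 50% inhibition of growth. TGI: concentration producing complete growth inhibition.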

Columns and labels:
Experiment in all cases: NCI anticancer screen, dose series, 48 h
A549 NSCLC = tested on: A549 NSCLC
HCT-116 colon = tested on: HCT-116 colon
HL-60(TB) leukemia = tested on: HL-60(TB) leukemia
IGROV1 ovarian = tested on: IGROV1 ovarian
MCF7 breast = tested on: MCF7 breast
MDA-MB-435 = tested on: MDA-MB-435
NCI-H460 lung = tested on: NCI-H460 lung
OVCAR-3 ovarian = tested on: OVCAR-3 ovarian
DMS 273 small cell lung = tested on: DMS 273 small cell lung
KM20L2 colon = tested on: KM20L2 colon
M19-MEL melanoma = tested on: M19-MEL melanoma
SNB-78 CNS = tested on: SNB-78 CNS

SMILES | GI50 (A549 NSCLC) [µM] | TGI (A549 NSCLC) [µM] | GI50 (HCT-116 colon) [µM] | TGI (HCT-116 colon) [µM] | GI50 (HL-60(TB) leukemia) [µM] | TGI (HL-60(TB) leukemia) [µM] | GI50 (IGROV1 ovarian) [µM] | TGI (IGROV1 ovarian) [µM] | GI50 (MCF7 breast) [µM] | TGI (MCF7 breast) [µM] | GI50 (MDA-MB-435) [µM] | TGI (MDA-MB-435) [µM] | GI50 (NCI-H460 lung) [µM] | TGI (NCI-H460 lung) [µM] | GI50 (OVCAR-3 ovarian) [µM] | TGI (OVCAR-3 ovarian) [µM] | TGI (DMS 273 small cell lung) [µM] | TGI (KM20L2 colon) [µM] | TGI (M19-MEL melanoma) [µM] | TGI (SNB-78 CNS) [µM]
COc1cc(C)[nH]c(=O)c1CN1CCc2c(Cl)cc([C@H](OC)C3COC3)c(Cl)c2C1=O | > 100 | > 100 | > 100 | > 100 | > 100 | > 100 | > 100 | > 100 | > 100 | > 100 | > 100 | > 100 | > 100 | > 100 | > 100 | > 100 |  |  |  | 
O=C1CC2C(=O)C1C(C(=O)O)C2C(=O)O (stereo not drawn) |  | > 100 |  | > 100 |  | > 100 |  | > 100 |  | > 100 |  | > 100 |  | > 100 |  | > 100 |  |  |  | 
COc1ccc(-c2nc(N)c3ncn(C4OC(CO)C(O)C4O)c3n2)cc1 (stereo not drawn) |  | > 100 |  | > 100 |  | > 100 |  | > 100 |  | > 100 |  | > 100 |  | > 100 |  | > 100 |  |  |  | 
NNC(=O)CCC(=O)Nc1ccc(Cl)cc1Cl |  | > 100 |  | > 100 |  | > 100 |  | > 100 |  |  |  |  |  | > 100 |  | > 100 | > 100 | > 100 | > 100 | > 100
CC(C)Cc1ccc(C(C)/C=C2\CCC(CN3CCCC3)C2=O)cc1 (stereo not drawn) |  | 35 |  | 15.5 |  | > 100 |  | 19 |  |  |  |  |  | 37.9 |  | 12.7 | 14.5 | 33.3 | 13.7 | 42.5
Cc1cccc2c1O/C(=C\c1ncc([N+](=O)[O-])n1C)C2=O | 0.382 | 2.26 | 0.0557 | 0.422 | 0.216 | 1.13 | 0.217 | 2.92 | 0.243 | 3.27 | 0.153 | 0.35 | 0.132 | 0.581 | 0.254 | 0.864 |  |  |  | 
COc1cc([C@@H]2c3cc4c(cc3[C@@H](NCc3ccc(C#N)cc3)C3COC(=O)[C@@H]32)OCO4)cc(OC)c1O (stereo partly drawn) |  | 1.54 |  | 11.8 |  | 0.771 |  | 7.29 |  |  |  |  |  | 1.77 |  | 5.51 | 2.49 | 3.99 | 19.5 | 53.2
CCCC1C(=O)C(CC)Cc2c(OC)ccc(OC)c21 (stereo not drawn) |  | > 100 |  |  |  | > 100 |  | > 100 |  |  |  |  |  | > 100 |  | > 100 | > 100 |  | > 100 | > 100
CC([C@H]1CCC2C3CCC4CC5(CC[C@]4(C)C3CC[C@@]21C)c1ccccc1C(=O)N5C)N(C)C (stereo partly drawn) |  | > 100 |  | > 100 |  | 46.3 |  | > 100 |  |  |  |  |  | > 100 |  | > 100 | 75.4 |  | 78.3 | 
CCCCNC(=O)Oc1ccc2c(=O)c3sc4c(=O)c5ccccc5c(=O)c4c3c(=O)c2c1 | 0.209 | 0.481 | 0.334 | 1.76 | 3.11 | > 100 | 2.23 | 6.72 | 0.429 | 2.18 | 0.172 | 0.328 | 0.195 | 0.395 | 0.299 | 0.977 |  |  |  | 
O=C1/C=C/[C@@H](O)[C@@H]2C[C@@H](O)C[C@H]2/C=C/CCC[C@H](CO)O1 | 3.65 | > 100 | 2.52 | 6.54 | 2.24 | 8.29 | 4.2 | > 100 | 1.79 | 5.88 | 2.91 | > 100 | 3.21 | > 100 | 2.2 | > 100 |  |  |  | 
COc1cccc(-c2nc(-c3ccc(NC(=O)c4ccccc4)cc3)[nH]c2-c2ccnc(Br)c2)c1 | 4.07 | > 100 | 3.29 | > 100 | 1.72 | 7.45 | 6.96 | > 100 | 2.4 | > 100 | 4.72 | > 100 | 3.53 | > 100 | 4.48 | > 100 |  |  |  | 
COc1cc2ccc(/C(C)=N/OC(C)=O)cc2cc1OC |  | > 100 |  | > 100 |  |  |  | > 100 |  |  |  |  |  | > 100 |  | > 100 | > 100 | > 100 | > 100 | > 100
CC(=O)NNC(=S)/N=C/c1c(O)cc(C)oc1=O |  | > 100 |  | > 100 |  | > 100 |  | > 100 |  | > 100 |  | > 100 |  | > 100 |  | > 100 |  |  |  | 
C/C(=N\NS(=O)(=O)c1ccc(C)cc1)c1c(O)cc(C)oc1=O |  | > 100 |  | > 100 |  | > 100 |  | > 100 |  |  |  |  |  | > 100 |  |  |  | > 100 | > 100 | > 100
O=S(=O)(NCCCNc1cc(-c2cn(-c3ccccc3)nc2-c2cccc(O)c2)ccn1)c1cccc2ccccc12 | 3.5 | > 100 | 2.8 | 12.4 | 2.7 | 7.2 | 5.86 | > 100 | 1.96 | 5.45 | 3.48 | 37.4 | 2.89 | 10.4 | 5.62 | > 100 |  |  |  | 
CC(Oc1ccc(OCC2CCCCC2)cc1)C(=O)O (stereo not drawn) |  | > 100 |  | > 100 |  | > 100 |  | > 100 |  |  |  |  |  | > 100 |  | > 100 | > 100 |  | > 100 | > 100
COc1c(B(O)O)cccc1-c1nc2c(F)cc3[nH]ncc3c2c2c1CCCC2 | 1.05 | > 55.8 | 0.422 | > 53.6 | 0.436 | 11.3 | 1.41 | 23.5 | 1.31 | 13.5 | 0.287 | 2.06 | 1.79 | 11.9 | 2.87 | 19.3 |  |  |  | 
